Values joined by “and” are separate entries in the source; they are usually repeats but may differ in a detail not shown here. Identical values can stand only once. Toxic doses and inconclusive results are not listed. Square brackets hold non-standard residues; d marks the D form. Peptide text beside a SMILES is read from it. * marks the point of attachment. ξ: configuration not given here. Boc = CC(C)(C)OC(=O)*; ξP = O=C(O)C1CCCN1
System: P388 leukemia ip, CD2F1 mice, survival T/C
Test: NCI In Vivo Anticancer Drug Screen. Data for tumor model P388 Leukemia (intraperitoneal) in CD2F1 (CDF1) mice
Settings: endpoint: median survival time, higher = longer survival
In short: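 Mice carrying the transplanted tumor received test compound or vehicle. Survival was recorded in each group, and the value is the treated-group measurement divided by that of the vehicle-treated control group.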

[1] = dose: 100.0 mg/kg/injection, schedule: Q04DX003 (ip), vehicle: Klucel (hydroxypropylcellulose) (HPC)
[2] = dose: 50.0 mg/kg/injection, schedule: Q01DX009 (ip), vehicle: Klucel (hydroxypropylcellulose) (HPC)
[3] = dose: 100.0 mg/kg/injection, schedule: Q01DX009 (ip), vehicle: Klucel (hydroxypropylcellulose) (HPC)
[4] = dose: 200.0 mg/kg/injection, schedule: Q01DX009 (ip), vehicle: Klucel (hydroxypropylcellulose) (HPC)
[5] = dose: 50.0 mg/kg/injection, schedule: Q01DX009 (ip), vehicle: saline
[6] = dose: 100.0 mg/kg/injection, schedule: Q01DX009 (ip), vehicle: saline
[7] = dose: 200.0 mg/kg/injection, schedule: Q01DX009 (ip), vehicle: saline
[8] = dose: 60.0 mg/kg/injection, schedule: Q01DX005 (ip), vehicle: saline with Tween-80
[9] = dose: 120.0 mg/kg/injection, schedule: Q01DX005 (ip), vehicle: saline with Tween-80
[10] = dose: 240.0 mg/kg/injection, schedule: Q01DX005 (ip), vehicle: saline with Tween-80
[11] = dose: 60.0 mg/kg/injection, schedule: Q01DX005 (ip), vehicle: Klucel (hydroxypropylcellulose) (HPC)
[12] = dose: 120.0 mg/kg/injection, schedule: Q01DX005 (ip), vehicle: Klucel (hydroxypropylcellulose) (HPC)
[13] = dose: 50.0 mg/kg/injection, schedule: Q01DX005 (ip), vehicle: Klucel (hydroxypropylcellulose) (HPC)
[14] = dose: 100.0 mg/kg/injection, schedule: Q01DX005 (ip), vehicle: Klucel (hydroxypropylcellulose) (HPC)
[15] = dose: 200.0 mg/kg/injection, schedule: Q01DX005 (ip), vehicle: Klucel (hydroxypropylcellulose) (HPC)
[16] = dose: 50.0 mg/kg/injection, schedule: Q01DX005 (ip), vehicle: saline with Tween-80
[17] = dose: 100.0 mg/kg/injection, schedule: Q01DX005 (ip), vehicle: saline with Tween-80
[18] = dose: 200.0 mg/kg/injection, schedule: Q01DX005 (ip), vehicle: saline with Tween-80

## CC1=CC(=O)N2CCN=C2S1
dose: 25.0 mg/kg/injection, schedule: Q04DX003 (ip), vehicle: Klucel (hydroxypropylcellulose) (HPC)
  T/C: 101 % of control
dose: 50.0 mg/kg/injection, schedule: Q04DX003 (ip), vehicle: Klucel (hydroxypropylcellulose) (HPC)
  T/C: 101 % of control
[1]
  T/C: 111 % of control and 98 % of control
dose: 200.0 mg/kg/injection, schedule: Q04DX003 (ip), vehicle: Klucel (hydroxypropylcellulose) (HPC)
  T/C: 111 % of control

## Cc1ccc(Cc2nnc(C)c3c(C)[nH]nc23)cc1
[2]
  T/C: 100 % of control
[3]
  T/C: 95 % of control
[4]
  T/C: 93 % of control

## COC(=O)C1CCCN1C(=O)CNC(=O)OC(C)(C)C (stereo not drawn) (Boc-Gly-[ξP]-OMe)
[5]
  T/C: 105 % of control
[6]
  T/C: 99 % of control
[7]
  T/C: 99 % of control
dose: 400.0 mg/kg/injection, schedule: Q01DX009 (ip), vehicle: saline
  T/C: 90 % of control

## O=[N+]([O-])c1ccccc1-c1ccc2c(O)c(Cl)c(Cl)c(O)c2n1
[1]
  T/C: 104 % of control

## NC(=O)C1C=CN(Cc2ccccc2)C=C1
dose: 30.0 mg/kg/injection, schedule: Q01DX005 (ip), vehicle: saline with Tween-80
  T/C: 105 % of control and 106 % of control
[8]
  T/C: 108 % of control and 111 % of control and 123 % of control
[9]
  T/C: 117 % of control and 118 % of control
[10]
  T/C: 108 % of control and 123 % of control

## CC1(C)SC(C)(c2ccco2)N(c2nccs2)C1=O (stereo not given)
[11]
  T/C: 104 % of control
[12]
  T/C: 104 % of control

## CCC(Nc1nncs1)Nc1nncs1
[13]
  T/C: 100 % of control
[14]
  T/C: 99 % of control
[15]
  T/C: 98 % of control

## O=C1c2ccccc2C(=O)C1C(=Nc1ccccc1Cl)c1ccccc1
dose: 12.5 mg/kg/injection, schedule: Q01DX005 (ip), vehicle: Klucel (hydroxypropylcellulose) (HPC)
  T/C: 90 % of control
dose: 25.0 mg/kg/injection, schedule: Q01DX005 (ip), vehicle: Klucel (hydroxypropylcellulose) (HPC)
  T/C: 88 % of control
[13]
  T/C: 86 % of control
[14]
  T/C: 94 % of control

## Fc1ccc2[nH]c3ncccc3c2c1
[16]
  T/C: 106 % of control
[17]
  T/C: 105 % of control
[18]
  T/C: 100 % of control

## NCCC(=O)NCCSSCCNC(=O)CCN
dose: 100.0 mg/kg/injection, schedule: Q04DX003 (ip), vehicle: saline
  T/C: 112 % of control
dose: 200.0 mg/kg/injection, schedule: Q04DX003 (ip), vehicle: saline
  T/C: 111 % of control

## Cn1c(=O)ccc2c(=O)c3ccccc3oc21
dose: 100.0 mg/kg/injection, schedule: Q04DX002 (ip), vehicle: saline with Tween-80
  T/C: 100 % of control
dose: 200.0 mg/kg/injection, schedule: Q04DX002 (ip), vehicle: saline with Tween-80
  T/C: 110 % of control
dose: 400.0 mg/kg/injection, schedule: Q04DX002 (ip), vehicle: saline with Tween-80
  T/C: 107 % of control

## Cc1cc(=O)n(Nc2ccccc2)c(O)c1C#N
[2]
  T/C: 100 % of control
[3]
  T/C: 94 % of control
[4]
  T/C: 100 % of control

## C#CCOc1ccc(O)c(C(=O)OCCCOC(=O)c2cc(OCC#C)ccc2O)c1
[8]
  T/C: 104 % of control
[9]
  T/C: 98 % of control
[10]
  T/C: 100 % of control

## c1ccc2c3c(ccc2c1)Oc1ccc2ccccc2c1C3CCC1c2c(ccc3ccccc23)Oc2ccc3ccccc3c21
[8]
  T/C: 96 % of control
[9]
  T/C: 95 % of control
[10]
  T/C: 86 % of control

## CC1(C(=O)O)C2C=CC3(CN(c4ccccc4)C(=O)C31c1ccccc1)O2 (stereo not given)
[11]
  T/C: 89 % of control
[12]
  T/C: 100 % of control
dose: 240.0 mg/kg/injection, schedule: Q01DX005 (ip), vehicle: Klucel (hydroxypropylcellulose) (HPC)
  T/C: 102 % of control

## CC(C)Cc1ncc(CC(C)C)n(O)c1=O
dose: 12.5 mg/kg/injection, schedule: Q01DX005 (ip), vehicle: distilled water + Tween-80
  T/C: 95 % of control
dose: 25.0 mg/kg/injection, schedule: Q01DX005 (ip), vehicle: distilled water + Tween-80
  T/C: 103 % of control
dose: 50.0 mg/kg/injection, schedule: Q01DX005 (ip), vehicle: distilled water + Tween-80
  T/C: 101 % of control
dose: 100.0 mg/kg/injection, schedule: Q01DX005 (ip), vehicle: distilled water + Tween-80
  T/C: 100 % of control

## COc1ccc(Cc2cc3c(cc2OC(C)=O)OCO3)cc1
[16]
  T/C: 100 % of control
[17]
  T/C: 100 % of control
[18]
  T/C: 99 % of control

## c1ccc(-c2csc3nc(N4CCCCC4)cn23)cc1
dose: 100.0 mg/kg/injection, schedule: Q04DX003 (ip), vehicle: saline + Tween-80 + alcohol
  T/C: 107 % of control
dose: 200.0 mg/kg/injection, schedule: Q04DX003 (ip), vehicle: saline + Tween-80 + alcohol
  T/C: 107 % of control

## COc1ccc(-c2cnc3c(N)nn(C)c3n2)cc1
dose: 100.0 mg/kg/injection, schedule: Q04DX003 (ip), vehicle: saline with Tween-80
  T/C: 90 % of control
dose: 200.0 mg/kg/injection, schedule: Q04DX003 (ip), vehicle: saline with Tween-80
  T/C: 100 % of control
dose: 400.0 mg/kg/injection, schedule: Q04DX003 (ip), vehicle: saline with Tween-80
  T/C: 105 % of control

## NC(C(=O)O)C(N)C(=O)O (stereo not given)
dose: 100.0 mg/kg/injection, schedule: Q01DX009 (ip), vehicle: saline with Tween-80
  T/C: 90 % of control
dose: 400.0 mg/kg/injection, schedule: Q01DX009 (ip), vehicle: saline with Tween-80
  T/C: 100 % of control

## CCCCCCNP1(NCCCCCC)=NP(NCCCCCC)(NCCCCCC)=NP(NCCCCCC)(NCCCCCC)=NP(NCCCCCC)(NCCCCCC)=N1
dose: 37.5 mg/kg/injection, schedule: Q01DX005 (ip), vehicle: Klucel (hydroxypropylcellulose) (HPC)
  T/C: 90 % of control
dose: 75.0 mg/kg/injection, schedule: Q01DX005 (ip), vehicle: Klucel (hydroxypropylcellulose) (HPC)
  T/C: 97 % of control

## O=C1C(N2CC2)=C(N2CC2)C(=O)C(N2CC2)=C1N1CC1
dose: 1.8 micrograms/kg/injection, schedule: Q01DX009 (ip), vehicle: saline
  T/C: 110 % of control
dose: 2.7 micrograms/kg/injection, schedule: Q01DX009 (ip), vehicle: saline
  T/C: 115 % of control
dose: 4.0 micrograms/kg/injection, schedule: Q01DX009 (ip), vehicle: saline
  T/C: 112 % of control

## O=C(CCCCC(=O)NO)NO
[2]
  T/C: 102 % of control
[3]
  T/C: 105 % of control
[4]
  T/C: 105 % of control

## CCCC[CH2][Pb]([CH2]CCCC)([CH2]CCCC)[O]C(C)=O
dose: 0.25 mg/kg/injection, schedule: Q01DX009 (ip), vehicle: saline sonified
  T/C: 104 % of control
dose: 0.5 mg/kg/injection, schedule: Q01DX009 (ip), vehicle: saline sonified
  T/C: 109 % of control
dose: 1.0 mg/kg/injection, schedule: Q01DX009 (ip), vehicle: saline sonified
  T/C: 104 % of control

## c1ccc(C(c2ccccc2)c2cc(-c3cc(C(c4ccccc4)c4ccccc4)[nH]n3)n[nH]2)cc1
dose: 60.0 mg/kg/injection, schedule: Q01DX005 (ip), vehicle: distilled water + Tween-80
  T/C: 97 % of control
dose: 120.0 mg/kg/injection, schedule: Q01DX005 (ip), vehicle: distilled water + Tween-80
  T/C: 102 % of control
dose: 240.0 mg/kg/injection, schedule: Q01DX005 (ip), vehicle: distilled water + Tween-80
  T/C: 102 % of control

## O=c1c(N=Nc2ccc(Br)cc2)c(O)n(-c2ccc(Cl)cc2)c(=S)n1-c1ccc(Br)cc1
dose: 100.0 mg/kg/injection, schedule: Q01DX001 (ip), vehicle: saline with Tween-80
  T/C: 96 % of control
dose: 200.0 mg/kg/injection, schedule: Q01DX001 (ip), vehicle: saline with Tween-80
  T/C: 95 % of control
dose: 400.0 mg/kg/injection, schedule: Q01DX001 (ip), vehicle: saline with Tween-80
  T/C: 89 % of control

## COc1ccc(S(=O)(=O)N/N=C\c2cc([N+](=O)[O-])cc([N+](=O)[O-])c2O)c(OC)c1OC
[16]
  T/C: 102 % of control
[17]
  T/C: 107 % of control
[18]
  T/C: 99 % of control

## COc1ccc(-c2cnnc3c(-c4cccc(C(F)(F)F)c4)cnn23)cc1
[13]
  T/C: 98 % of control
[14]
  T/C: 93 % of control
[15]
  T/C: 89 % of control

## CC(C)c1[nH]c2ccccc2c1Cn1ccnc1
[13]
  T/C: 100 % of control
[14]
  T/C: 114 % of control

## O=C1NC(=O)N(c2ccc(Cl)c(Cl)c2)C1=O
[2]
  T/C: 94 % of control
[3]
  T/C: 93 % of control
[4]
  T/C: 94 % of control

## NC(=Nc1ccccc1)c1ccccn1
[5]
  T/C: 95 % of control
[6]
  T/C: 94 % of control
[7]
  T/C: 95 % of control

Reference: PubChem BioAssay AID330 (DTP/NCI, 2004)
